Measurements from patent US20100129290A1, “SMART CONTRAST AGENT AND DETECTION METHOD FOR DETECTING TRANSITION METAL IONS” (I.S.T. corporation, priority 2008, published 2010).
Where no end group is shown, it is not given here. The star is where a group is joined. dabcyl = dabcyl quencher on the Lys side chain, CN(C)c1ccc(/N=N/c2ccc(C(=O)*)cc2)cc1; K(FAM) = lysine with FAM attached to its side chain

Experiments:
[1] = 1H longitudinal relaxivity (NMRD); assay type: physicochemical; details: salt only, 50 mM NEM, pH=7.0, 20 MHz
Experimental: Smart contrast agents with larger relaxivity values imply lower MRI detection limits for the target species and are advantageous over contrast agents with lower relaxivity values.
The incubation was conducted in the dark, at room temperature, and lasted for 3 hours. The longitudinal relaxivity was measured at field strengths between 0.01 MHz to 20 MHz. […] The underlining mechanisms responsible for the observed behavior have not been well characterized to date, but likely contain contributions from several factors including gadolinium-copper ion exchange, alterations in peptide solubility, peptide structural rearrangements, remaining synthesis impurities, and buffer interactions with both copper and gadolinium ions.

Aβ accumulation = details: transgenic mice; cited from earlier work
[2] = tested on: endogenous β-amyloid peptides; details: cerebrospinal fluid; read-out: EC50 for conversion of endogenous β-amyloid peptides into insoluble aggregates; cited from earlier work
[3] = Fluorescence (FRET) titration with copper(II) ions; assay type: binding; details: for effect of the mutation on copper binding: mutant versus P1P
[4] = Fluorescence (FRET) titration with zinc(II) ions; assay type: binding; details: for effect of the mutation on zinc binding: mutant versus P1P
[5] = Fluorescence (FRET) titration with calcium(II) ions; assay type: binding
[6] = Fluorescence (FRET) titration with magnesium(II) ions; assay type: binding
[7] = Fluorescence (FRET) titration with gadolinium(III) ions; assay type: binding; details: for Gd^+3 binding, effect on FRET activity: 10 μM peptide, pH dependence

## O=S(=O)([O-])[O-].[Cu+2] [CuSO4]
[1]
  relaxivity: 0.4 mM⁻¹ s⁻¹

## [Cl][Gd]([Cl])[Cl] [GdCl3]
[1]
  relaxivity: 5.1 mM⁻¹ s⁻¹

## Oc1c(I)cc(Cl)c2cccnc12 [clioquinol]
Aβ accumulation
  inhibition of Aβ accumulation: significant inhibition of Aβ accumulation

## [Zn+2] [zinc ions]
[2]
  EC50: 120 to 140 µM

## K(FAM)PAGGGWGQK(dabcyl) ({K(FAM)}-PAGGGWGQK(dabcyl)) [P17, mutant version of P1P, histidine to alanine]
[3]
  effect of the mutation on copper binding: most critical
[4]
  effect of the mutation on zinc binding: most critical
[5]
  binding with Ca^+2: No binding
[6]
  binding with Mg^+2: No binding
[7]
  Gd^+3 binding, effect on FRET activity: marked increase in Gd^+3 binding with increasing pH

## K(FAM)PHGGGAGQK(dabcyl) ({K(FAM)}-PHGGGAGQK(dabcyl)) [P16, mutant version of P1P, tryptophan to alanine]
[3]
  effect of the mutation on copper binding: significant effect
[4]
  effect of the mutation on zinc binding: significant effect
[5]
  binding with Ca^+2: No binding
[6]
  binding with Mg^+2: No binding
[7]
  Gd^+3 binding, effect on FRET activity: marked increase in Gd^+3 binding with increasing pH

## K(FAM)PHGGGWGAK(dabcyl) ({K(FAM)}-PHGGGWGAK(dabcyl)) [P18, mutant version of P1P, glutamine to alanine]
[3]
  effect of the mutation on copper binding: either had no effect, or even increased the peptide binding strength
[3]; pH ≦7
  effect of the mutation on binding affinity for copper: little effect
[3]; pH=7.6
  effect of the mutation on binding activity with copper: increase the binding activity
[4]
  effect of the mutation on zinc binding: either had no effect, or even increased the peptide binding strength
[4]; pH ≦7
  effect of the mutation on binding affinity for zinc: little effect
[4]; pH=7.6
  effect of the mutation on binding activity with zinc: increase the binding activity
[5]
  binding with Ca^+2: No binding
[6]
  binding with Mg^+2: No binding
[7]
  Gd^+3 binding, effect on FRET activity: marked increase in Gd^+3 binding with increasing pH
[7]; versus base P1P peptide
  effect of the mutation on affinity of Gd^+3 ions: reduce the affinity
